# Tested on: LH release
smiles,measurement,value
"CCNC(=O)[C@@H]1CCCN1C(=O)[C@H](CCCNC(=N)N)NC(=O)[C@H](CC(C)C)NC(=O)[C@@H](Cc1ccc(Nc2n[nH]c(N)n2)cc1)NC(=O)[C@H](Cc1ccc(O)cc1)NC(=O)[C@H](CO)NC(=O)[C@H](Cc1c[nH]c2ccccc12)NC(=O)[C@H](Cc1c[nH]cn1)NC(=O)[C@@H]1CCC(=O)N1 [Peptide 130A, pGlu-His-Trp-Ser-Tyr-D-Aph(3-amino-1,2,4-triazole)-Leu-Arg-Pro-NHCH2 CH3]",potency relative to native GnRH,about 79 times that of native GnRH

# Reference: patent publication US5744450A, “GnRH analogs” (The Salk Institute for Biological Studies, priority 1995, dated 1998)
